Read-outs that look alike come from different tables or passages of the source.
What was measured:
PAK2 = target: T1, PAK2 (Homo sapiens, UniProt Q13177); parameters: method as in earlier work; details: Table S1; cited from earlier work
T1 construct: purchased DiscoveRx KINOMEscan (Ambit Biosciences)

IGF1R = target: T2, IGF1R (Homo sapiens, UniProt P08069); parameters: method as in earlier work; details: Table S1; cited from earlier work
T2 construct: DNA tag (qPCR read-out); purchased Ambit Biosciences (KINOMEscan service)
T2 sequence (P08069 31-1367): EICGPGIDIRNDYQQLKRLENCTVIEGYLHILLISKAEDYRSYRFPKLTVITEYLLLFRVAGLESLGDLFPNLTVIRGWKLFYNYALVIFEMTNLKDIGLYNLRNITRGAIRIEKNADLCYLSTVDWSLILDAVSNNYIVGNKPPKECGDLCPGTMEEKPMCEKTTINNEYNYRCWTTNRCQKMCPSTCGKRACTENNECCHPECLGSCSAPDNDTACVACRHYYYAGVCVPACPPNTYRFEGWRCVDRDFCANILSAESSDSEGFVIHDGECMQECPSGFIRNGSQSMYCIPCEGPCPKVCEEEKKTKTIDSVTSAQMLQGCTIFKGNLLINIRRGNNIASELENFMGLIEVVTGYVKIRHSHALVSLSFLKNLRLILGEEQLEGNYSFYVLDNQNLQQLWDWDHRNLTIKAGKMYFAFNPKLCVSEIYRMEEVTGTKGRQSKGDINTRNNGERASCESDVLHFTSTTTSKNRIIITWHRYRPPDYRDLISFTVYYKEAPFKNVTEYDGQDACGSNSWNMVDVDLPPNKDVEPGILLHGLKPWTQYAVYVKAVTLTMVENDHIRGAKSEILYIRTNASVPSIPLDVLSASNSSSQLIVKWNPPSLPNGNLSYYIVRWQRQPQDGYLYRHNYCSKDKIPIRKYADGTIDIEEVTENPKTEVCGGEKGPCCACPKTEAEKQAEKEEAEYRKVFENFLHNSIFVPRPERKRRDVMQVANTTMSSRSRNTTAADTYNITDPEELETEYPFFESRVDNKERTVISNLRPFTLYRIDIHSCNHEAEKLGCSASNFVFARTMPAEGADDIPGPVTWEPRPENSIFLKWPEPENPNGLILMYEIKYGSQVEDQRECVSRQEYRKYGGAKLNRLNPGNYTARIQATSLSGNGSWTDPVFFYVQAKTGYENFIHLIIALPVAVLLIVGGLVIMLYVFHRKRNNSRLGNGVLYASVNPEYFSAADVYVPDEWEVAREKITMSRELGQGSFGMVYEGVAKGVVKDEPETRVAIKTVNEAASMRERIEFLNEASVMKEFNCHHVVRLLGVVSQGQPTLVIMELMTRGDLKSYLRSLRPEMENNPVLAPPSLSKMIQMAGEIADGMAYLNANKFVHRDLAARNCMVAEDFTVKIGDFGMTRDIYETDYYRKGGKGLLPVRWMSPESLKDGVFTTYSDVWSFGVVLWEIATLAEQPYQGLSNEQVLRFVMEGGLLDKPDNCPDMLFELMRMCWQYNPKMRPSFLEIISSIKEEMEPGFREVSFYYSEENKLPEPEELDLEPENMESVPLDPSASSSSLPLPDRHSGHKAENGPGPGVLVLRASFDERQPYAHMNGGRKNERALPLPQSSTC

[1] = test system: active β-catenin, NKD1, AXIN2 in MV4-11 tumors; assay: Wnt/β-catenin signaling in MV4-11 xenograft tumors (western blot, qPCR); type: in vivo, NOD-SCID mice; details: single oral dose 10 mg/kg
Method: Western blot assays and real-time qPCR assays were conducted on the harvested tumors.
Whole protein lysates of tumor samples were collected by the abrading of tumors in liquid nitrogen. […] Quantitative analysis of the protein level was performed with NIH image analysis software, ImageJ (normalized relative to the vehicle control).
Total RNA of cell samples and tumor samples was extracted using RNAsimple total RNA kit (TIANGEN) according to the manufacturer’s instructions. cDNA was generated using the iScript^TMcDNA Synthesis Kit (Bio-Rad), and the RT-PCR reactions were performed using SsoAdvanced SYBR Green Supermix (Bio-Rad). The reaction consisted of 40 cycles of denaturation at 95 °C for 5 s and annealing/extension for 30s at 60 °C.
The mice were assigned to 5 groups (n = 6 in each group). […] The mean values ± SD are shown. […] Representative images were shown.

TAOK3 = target: T3, TAOK3 (Homo sapiens, UniProt Q9H2K8); assay: KINOMEscan panel screen; type: binding; details: read-out: Percent Control(%)
T3 construct: purchased DiscoveRx KINOMEscan (Ambit Biosciences)
T3 sequence (Q9H2K8 whole entry): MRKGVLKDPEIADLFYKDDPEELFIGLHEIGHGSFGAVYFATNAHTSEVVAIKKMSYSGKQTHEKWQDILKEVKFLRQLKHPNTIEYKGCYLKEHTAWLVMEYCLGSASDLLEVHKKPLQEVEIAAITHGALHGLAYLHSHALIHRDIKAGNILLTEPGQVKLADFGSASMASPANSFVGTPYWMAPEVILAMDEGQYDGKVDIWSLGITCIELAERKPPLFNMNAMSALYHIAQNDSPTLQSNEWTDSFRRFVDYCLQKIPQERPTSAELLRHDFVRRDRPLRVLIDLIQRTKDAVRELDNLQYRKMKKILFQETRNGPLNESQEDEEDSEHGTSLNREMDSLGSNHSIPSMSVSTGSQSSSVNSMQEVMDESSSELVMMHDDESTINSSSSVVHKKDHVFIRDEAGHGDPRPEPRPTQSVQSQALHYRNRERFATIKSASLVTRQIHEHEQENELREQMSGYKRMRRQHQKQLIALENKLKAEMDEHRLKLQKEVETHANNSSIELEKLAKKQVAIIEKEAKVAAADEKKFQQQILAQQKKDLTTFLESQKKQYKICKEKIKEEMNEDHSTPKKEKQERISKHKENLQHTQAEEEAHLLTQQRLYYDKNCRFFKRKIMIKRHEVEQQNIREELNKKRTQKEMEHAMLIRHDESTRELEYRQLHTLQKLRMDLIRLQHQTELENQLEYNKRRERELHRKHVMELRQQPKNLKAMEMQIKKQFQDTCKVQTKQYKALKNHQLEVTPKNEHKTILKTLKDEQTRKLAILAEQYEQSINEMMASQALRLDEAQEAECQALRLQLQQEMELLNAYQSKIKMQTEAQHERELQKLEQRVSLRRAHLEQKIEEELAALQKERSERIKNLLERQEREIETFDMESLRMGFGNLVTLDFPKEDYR

EPHA4 = target: T4, EPHA4 (Homo sapiens, UniProt P54764); assay: KINOMEscan panel screen; type: binding; details: read-out: Percent Control(%)
T4 construct: purchased DiscoveRx KINOMEscan (Ambit Biosciences)
T4 sequence (P54764 20-986): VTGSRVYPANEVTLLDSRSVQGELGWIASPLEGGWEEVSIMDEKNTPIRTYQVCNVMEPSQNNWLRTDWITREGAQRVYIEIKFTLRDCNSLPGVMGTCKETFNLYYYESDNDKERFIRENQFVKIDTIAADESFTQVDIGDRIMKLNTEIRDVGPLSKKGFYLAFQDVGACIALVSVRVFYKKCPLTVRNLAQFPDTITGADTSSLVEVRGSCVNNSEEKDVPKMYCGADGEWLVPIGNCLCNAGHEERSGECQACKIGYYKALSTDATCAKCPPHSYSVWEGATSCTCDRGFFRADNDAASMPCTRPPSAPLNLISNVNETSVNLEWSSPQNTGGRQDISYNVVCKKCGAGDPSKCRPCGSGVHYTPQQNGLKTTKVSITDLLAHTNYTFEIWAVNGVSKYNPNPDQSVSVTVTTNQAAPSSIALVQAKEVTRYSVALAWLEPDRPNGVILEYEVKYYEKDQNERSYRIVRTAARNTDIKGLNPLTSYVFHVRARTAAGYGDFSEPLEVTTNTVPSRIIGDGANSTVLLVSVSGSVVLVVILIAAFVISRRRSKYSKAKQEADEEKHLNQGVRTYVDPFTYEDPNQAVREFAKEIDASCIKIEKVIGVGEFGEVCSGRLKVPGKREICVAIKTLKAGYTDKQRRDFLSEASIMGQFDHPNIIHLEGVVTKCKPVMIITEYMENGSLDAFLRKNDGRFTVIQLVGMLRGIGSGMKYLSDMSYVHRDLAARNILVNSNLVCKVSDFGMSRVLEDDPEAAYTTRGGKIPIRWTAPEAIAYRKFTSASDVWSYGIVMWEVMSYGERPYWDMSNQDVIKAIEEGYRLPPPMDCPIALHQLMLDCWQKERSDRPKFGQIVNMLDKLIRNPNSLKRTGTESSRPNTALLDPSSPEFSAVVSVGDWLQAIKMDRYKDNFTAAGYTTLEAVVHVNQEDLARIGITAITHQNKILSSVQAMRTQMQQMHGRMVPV

ACVR1 = target: T5, ACVR1 (Homo sapiens, UniProt Q04771); assay: KINOMEscan panel screen; type: binding; details: read-out: Percent Control(%)
T5 construct: purchased DiscoveRx KINOMEscan (Ambit Biosciences)

CDC2L1 = target: T6, CDC2L1 (Homo sapiens, UniProt P21127); assay: KINOMEscan panel screen; type: binding; details: read-out: Percent Control(%)
T6 construct: purchased DiscoveRx KINOMEscan (Ambit Biosciences)

MET(Y1235D) = target: T7, MET(Y1235D) (Homo sapiens, UniProt P08581, Y1235D); assay: KINOMEscan panel screen; type: binding; details: read-out: Percent Control(%)
T7 construct: purchased DiscoveRx KINOMEscan (Ambit Biosciences)

zebrafish embryos = assay: Zebrafish development experiment (posterior axis formation); type: in vivo; details: added at 4hpf, observed after 24hpf
BRK = target: T8, BRK (Homo sapiens, UniProt Q13882); assay: KINOMEscan panel screen; type: binding; details: read-out: Percent Control(%)
T8 construct: purchased DiscoveRx KINOMEscan (Ambit Biosciences)

[2] = Pharmacokinetic assessment in rats; type: in vivo, SD rats; details: rat, mean; for Tmax / half-life / AUC(0-t) / Cmax / t1/2: 10 mg/kg; for AUC(0-t): read-out: AUC(0-36h)
Method: Preliminary pharmacokinetic characteristics of SKLB-677 were assessed on rats with SKLB-677 at a dose of 10 mg/kg P.O. and I.V. administration. The key pharmacokinetic parameters calculated are summarized in Supplementary Table S6.
SD rats (6 per group) were orally treated or injected intravenously with 10 mg/kg SKLB-677, followed by the collection of blood from the jugular vein into heparinized tubes at the appropriate times. The plasma was isolated by centrifugation. The plasma concentrations of SKLB-677 were determined using liquid–liquid extraction followed by high-performance liquid chromatography (HPLC) with tandem mass spectrometric detection. Noncompartmental pharmacokinetic parameters (AUC, Tmax, Cmax, and t1⁄2) were obtained from the blood concentration time profiles using DAS software.
Supplementary Table S6. The pharmacokinetic characteristics of SKLB-677. […]
standard deviation. t1/2: Mean half-life associat ed with the terminal slope and standard deviation.C max: Mean peak plasma concentration and standard deviation.
Tmax: Mean time to reach max imum plasma concentration and standard dev iation. CL:
Mean bod y clearance and standard deviation. Vss: Mean volume of distribution at steady state and standard deviation. The statistical anal ysis of data was shown as mean values and SD v alues (n= 6) .

FGFR3(G697C) = target: T9, FGFR3(G697C) (Homo sapiens, UniProt P22607, G697C); assay: KINOMEscan panel screen; type: binding; details: read-out: Percent Control(%)
T9 construct: purchased DiscoveRx KINOMEscan (Ambit Biosciences)

ERK2 = target: T10, ERK2 (Homo sapiens, UniProt P28482); assay: KINOMEscan panel screen; type: binding; details: read-out: Percent Control(%)
T10 construct: purchased DiscoveRx KINOMEscan (Ambit Biosciences)

DRAK1 = target: T11, DRAK1 (Homo sapiens, UniProt Q9UEE5); assay: KINOMEscan panel screen; type: binding; details: read-out: Percent Control(%)
T11 construct: purchased DiscoveRx KINOMEscan (Ambit Biosciences)
T11 sequence (Q9UEE5 whole entry): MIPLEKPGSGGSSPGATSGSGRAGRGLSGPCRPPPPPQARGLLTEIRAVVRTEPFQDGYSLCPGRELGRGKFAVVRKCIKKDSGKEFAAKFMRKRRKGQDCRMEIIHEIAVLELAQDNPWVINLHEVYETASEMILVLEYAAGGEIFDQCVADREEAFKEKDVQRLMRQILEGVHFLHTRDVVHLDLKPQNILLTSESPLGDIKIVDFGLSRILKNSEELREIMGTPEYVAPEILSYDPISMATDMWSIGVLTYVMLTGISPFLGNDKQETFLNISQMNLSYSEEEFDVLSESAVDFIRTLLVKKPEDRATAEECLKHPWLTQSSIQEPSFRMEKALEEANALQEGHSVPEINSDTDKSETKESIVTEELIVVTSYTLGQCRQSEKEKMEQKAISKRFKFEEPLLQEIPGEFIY

PCTK2 = target: T12, PCTK2 (Homo sapiens, UniProt Q00537); assay: KINOMEscan panel screen; type: binding; details: read-out: Percent Control(%)
T12 construct: purchased DiscoveRx KINOMEscan (Ambit Biosciences)

MYO3B = target: T13, MYO3B (Homo sapiens, UniProt Q8WXR4); assay: KINOMEscan panel screen; type: binding; details: read-out: Percent Control(%)
T13 construct: purchased DiscoveRx KINOMEscan (Ambit Biosciences)

GRK7 = target: T14, GRK7 (Homo sapiens, UniProt Q8WTQ7); assay: KINOMEscan panel screen; type: binding; details: read-out: Percent Control(%)
T14 construct: purchased DiscoveRx KINOMEscan (Ambit Biosciences)
T14 sequence (Q8WTQ7 whole entry): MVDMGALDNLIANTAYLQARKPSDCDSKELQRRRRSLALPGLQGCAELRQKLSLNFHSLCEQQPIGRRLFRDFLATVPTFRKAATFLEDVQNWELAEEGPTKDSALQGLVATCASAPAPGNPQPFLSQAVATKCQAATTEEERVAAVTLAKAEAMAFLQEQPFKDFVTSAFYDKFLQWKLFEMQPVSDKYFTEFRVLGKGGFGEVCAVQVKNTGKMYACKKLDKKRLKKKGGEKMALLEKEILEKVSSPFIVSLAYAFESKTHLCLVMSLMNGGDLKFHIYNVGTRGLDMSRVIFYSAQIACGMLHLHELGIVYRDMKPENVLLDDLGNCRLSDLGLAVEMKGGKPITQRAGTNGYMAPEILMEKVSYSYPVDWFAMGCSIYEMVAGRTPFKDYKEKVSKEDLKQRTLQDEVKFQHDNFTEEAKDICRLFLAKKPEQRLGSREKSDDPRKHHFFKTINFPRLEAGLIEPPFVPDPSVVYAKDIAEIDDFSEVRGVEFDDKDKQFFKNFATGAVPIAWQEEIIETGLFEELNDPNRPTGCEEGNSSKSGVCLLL

MEK1 = target: T15, MEK1 (Homo sapiens, UniProt Q02750); assay: KINOMEscan panel screen; type: binding; details: read-out: Percent Control(%)
T15 construct: purchased DiscoveRx KINOMEscan (Ambit Biosciences)

NDR2 = target: T16, NDR2 (Homo sapiens, UniProt Q9Y2H1); assay: KINOMEscan panel screen; type: binding; details: read-out: Percent Control(%)
T16 construct: purchased DiscoveRx KINOMEscan (Ambit Biosciences)

LCK = LCK (Homo sapiens, UniProt P06239); assay: KINOMEscan kinase binding assay (Kd)
Chain of LCK (P06239 whole entry): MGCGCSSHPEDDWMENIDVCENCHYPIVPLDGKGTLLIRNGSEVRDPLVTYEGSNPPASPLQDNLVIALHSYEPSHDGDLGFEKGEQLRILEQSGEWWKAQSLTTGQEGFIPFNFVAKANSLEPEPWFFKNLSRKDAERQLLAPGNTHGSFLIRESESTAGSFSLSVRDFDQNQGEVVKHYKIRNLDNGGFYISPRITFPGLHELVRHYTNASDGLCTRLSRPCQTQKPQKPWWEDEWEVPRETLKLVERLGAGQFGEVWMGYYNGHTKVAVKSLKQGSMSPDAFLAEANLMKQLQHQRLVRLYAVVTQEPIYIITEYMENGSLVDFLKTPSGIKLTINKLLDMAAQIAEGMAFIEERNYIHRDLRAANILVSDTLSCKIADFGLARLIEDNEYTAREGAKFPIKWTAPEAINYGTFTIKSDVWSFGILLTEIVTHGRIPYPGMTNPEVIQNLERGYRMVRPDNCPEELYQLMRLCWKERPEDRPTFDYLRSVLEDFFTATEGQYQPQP

ERK1 = target: T17, ERK1 (Homo sapiens, UniProt P27361); assay: KINOMEscan panel screen; type: binding; details: read-out: Percent Control(%)
T17 construct: purchased DiscoveRx KINOMEscan (Ambit Biosciences)

S6K1 = target: T18, S6K1 (Homo sapiens, UniProt P23443); assay: KINOMEscan panel screen; type: binding; details: read-out: Percent Control(%)
T18 construct: purchased DiscoveRx KINOMEscan (Ambit Biosciences)

MINK = target: T19, MINK (Homo sapiens, UniProt Q8N4C8); assay: KINOMEscan panel screen; type: binding; details: read-out: Percent Control(%)
T19 construct: purchased DiscoveRx KINOMEscan (Ambit Biosciences)

MAK = target: T20, MAK (Homo sapiens, UniProt P20794); assay: KINOMEscan panel screen; type: binding; details: read-out: Percent Control(%)
T20 construct: purchased DiscoveRx KINOMEscan (Ambit Biosciences)

MEK4 = target: T21, MEK4 (Homo sapiens, UniProt P45985); assay: KINOMEscan panel screen; type: binding; details: read-out: Percent Control(%)
T21 construct: purchased DiscoveRx KINOMEscan (Ambit Biosciences)
T21 sequence (P45985 whole entry): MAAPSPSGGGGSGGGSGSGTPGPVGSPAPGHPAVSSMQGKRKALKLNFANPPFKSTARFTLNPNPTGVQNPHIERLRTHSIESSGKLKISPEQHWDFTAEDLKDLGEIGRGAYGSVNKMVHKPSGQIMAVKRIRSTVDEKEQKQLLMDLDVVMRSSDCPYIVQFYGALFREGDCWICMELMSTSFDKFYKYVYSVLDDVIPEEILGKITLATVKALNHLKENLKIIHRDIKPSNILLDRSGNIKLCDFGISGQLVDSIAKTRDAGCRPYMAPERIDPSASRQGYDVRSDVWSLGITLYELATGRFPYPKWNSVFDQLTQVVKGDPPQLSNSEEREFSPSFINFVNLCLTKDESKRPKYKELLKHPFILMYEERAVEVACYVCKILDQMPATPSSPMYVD

TRKC = target: T22, TRKC (Homo sapiens, UniProt Q16288); assay: KINOMEscan panel screen; type: binding; details: read-out: Percent Control(%)
T22 construct: purchased DiscoveRx KINOMEscan (Ambit Biosciences)

SRC = target: T23, SRC (Homo sapiens, UniProt P12931); assay: KINOMEscan panel screen; type: binding; details: read-out: Percent Control(%)
T23 construct: purchased DiscoveRx KINOMEscan (Ambit Biosciences)

MAPKAPK2 = target: T24, MAPKAPK2 (Homo sapiens, UniProt P49137); assay: KINOMEscan panel screen; type: binding; details: read-out: Percent Control(%)
T24 construct: purchased DiscoveRx KINOMEscan (Ambit Biosciences)

WEE1 = target: T25, WEE1 (Homo sapiens, UniProt P30291); assay: KINOMEscan panel screen; type: binding; details: read-out: Percent Control(%)
T25 construct: purchased DiscoveRx KINOMEscan (Ambit Biosciences)

CDKL5 = target: T26, CDKL5 (Homo sapiens, UniProt O76039); assay: KINOMEscan panel screen; type: binding; details: read-out: Percent Control(%)
T26 construct: purchased DiscoveRx KINOMEscan (Ambit Biosciences)

PKAC-beta = target: T27, PKAC-beta (Homo sapiens, UniProt P22694); assay: KINOMEscan panel screen; type: binding; details: read-out: Percent Control(%)
T27 construct: purchased DiscoveRx KINOMEscan (Ambit Biosciences)

KG-1 = assay: MTT cell viability assay; details: Homo sapiens, KG-1, 72 h

SMILES: O=C(Nc1ccc(Oc2ncnc3[nH]ncc23)cc1)Nc1ccc(Cl)c(C(F)(F)F)c1 [Compound 1, 1-(4-(1H-pyrazolo[3,4-d]pyrimidin-4-yloxy)phenyl)-3-(4-chloro-3-(trifluoromethyl)phenyl)urea]
- IC50 (PAK2): > 10000 nM
- IC50 (IGF1R): > 10000 nM

SMILES: CC(C)(C)c1cc(NC(=O)Nc2ccc(Oc3ncnc4[nH]ncc34)c(F)c2)no1 [SKLB-677, 1-(4-(1H-pyrazolo[3,4-d]pyrimidin-4-yloxy)-3-fluorophenyl)-3-(5-tert-butylisoxazol-3-yl)urea]
- mRNA level of NKD1 and AXIN2 in tumors [1]: down-regulated
- protein levels of active β-catenin and NKD1 in tumors [1]: induced the reduction
- remaining binding at 10 µM (TAOK3): 0.55%
- remaining binding at 10 µM (EPHA4): 4.8%
- remaining binding at 10 µM (ACVR1): 95%
- remaining binding at 10 µM (CDC2L1): 66%
- remaining binding at 10 µM (MET(Y1235D)): 5.4%
- embryo dorsalization (zebrafish embryos): led to embryo dorsalization in a dose-dependent manner
- remaining binding at 10 µM (BRK): 23%
- clearance ([2]; SD, plasma, iv, 10 mg/kg I.V.): 0.617 mL/min/kg
- Vd ([2]; SD, plasma, iv, 10 mg/kg I.V., read-out: Vss (apparent volume of distribution, Vd)): 0.271 L/kg
- Tmax ([2]; SD, plasma, iv, 10 mg/kg I.V.): 0.033 h
- half-life ([2]; SD, plasma, iv, 10 mg/kg I.V.): 5.09 h
- AUC(0-t) ([2]; SD, plasma, iv, 10 mg/kg I.V.): 272 µg·h/mL
- Cmax ([2]; SD, plasma, iv, 10 mg/kg I.V., read-out: Cmax): 58200 ng/mL
- Tmax ([2]; SD, plasma, po, 10 mg/kg P.O.): 3 h
- half-life ([2]; SD, plasma, po, 10 mg/kg P.O.): 5.43 h
- AUC(0-t) ([2]; SD, plasma, po, 10 mg/kg P.O.): 176 µg·h/mL
- Cmax ([2]; SD, plasma, po, 10 mg/kg P.O., read-out: Cmax): 12300 ng/mL
- t1/2 ([2]; 10 mg/kg I.V.): 5.1 h
- CL ([2]; 10 mg/kg P.O.): 0.967 mL/min/kg
- Vss ([2]; 10 mg/kg P.O.): 0.446 L/kg
- Cmax ([2]; 10 mg/kg P.O.): 12280 ng/mL
- t1/2 ([2]; 10 mg/kg P.O.): 5.4 h
- remaining binding at 10 µM (FGFR3(G697C)): 22%
- remaining binding at 10 µM (ERK2): 100%
- remaining binding at 10 µM (DRAK1): 100%
- remaining binding at 10 µM (PCTK2): 0%
- remaining binding at 10 µM (MYO3B): 17%
- remaining binding at 10 µM (GRK7): 87%
- remaining binding at 10 µM (MEK1): 7.2%
- remaining binding at 10 µM (NDR2): 56%
- Kd (LCK): 130 nM
- remaining binding at 10 µM (ERK1): 76%
- remaining binding at 10 µM (S6K1): 54%
- remaining binding at 10 µM (MINK): 2.3%
- remaining binding at 10 µM (MAK): 21%
- remaining binding at 10 µM (MEK4): 39%
- remaining binding at 10 µM (TRKC): 0.05%
- remaining binding at 10 µM (SRC): 9.2%
- remaining binding at 10 µM (MAPKAPK2): 100%
- remaining binding at 10 µM (WEE1): 64%
- remaining binding at 10 µM (CDKL5): 5%
- remaining binding at 10 µM (PKAC-beta): 88%
- IC50 (KG-1): 2000 nM

— paper PMC4620497 (Scientific Reports, 2015)
